Patent publication US4731383A, “Aminoguanidine compounds, their compositions and pharmaceutical uses” (Biogal Gyogyszergyar, priority 1983, dated 1988)
Where a name gives a salt, the structure may show the parent alone. Read-outs that look alike come from different tables or passages of the source.

Legend:
in vivo = settings: mouse
[1] = tested on: mice treated with aconitin; assay: animal or person; type: in vivo; settings: Mus musculus, read-out: Delay in the appearance time of arrhythmia
Experimental: Arrhytmia was induced in male mice, weighing 20 to 25 g, by treating them continuously, at a rate of 0.2 ml/min with an infusion containing 5 μg/kg of aconitin. The test compound was administered to the animals either intraperitoneally (by injecting it into the abdominal cavity) 15 minutes before the start of the infusion, or orally 60 minutes before the onset of the infusion. The time of the appearance of arrhythmia was recorded, and the percentage of delay was calculated in relation to the data obtained in the controls, pretreated with 0.9 percent sodium chloride solution only [B. Vargaftig and J. L. Coignet: European J. of Pharmacol. 6, 49 to 55 (1969); N. K. Dadkar and B. K. Bhattachariya: Arch. Int. Pharmacodyn. 212, 297 to 301 (1974); D. U. Nwagwu, T. L. Holcslaw and S. J. Stohs: Arch. Int. Pharmacodyn. 229, 219 to 226 (1977)].

[2] = tested on: anaesthesized cats, fibrillation threshold of the heart; assay: Determination of the fibrillation threshold in anaesthetized cats; type: in vivo; settings: cat
Description: The chests of the cats were opened under chloralose-urethane anaesthesia, a bipolar stimulating electrode was fixed onto the heart, and the heart was stimulated electrically with a frequency of 20 Hz, under continuously increasing current strength, until a fibrillo-flattern could be observed. This current strength was considered as the fibrillation threshold of the animal.

[3] = tested on: right ventricle of isolated rabbit heart; assay: Electrophysiological tests in the isolated rabbit heart, right ventricle; settings: 2.0 mg/l, n = 4
Experimental: (§1) Hearts of rabbits of both sexes, weighing 1 to 2 kg, were removed, the right and left auricles and a segment of the right ventricle were prepared and placed into a vessel filled with nutrient solution. Bipolar platinum electrodes (a stimulating electrode and a lead electrode) were placed on the organ strips, and the electric stimulus threshold and the speed of impulse conduction were measured. The effective refractory period was determined on the basis of the maximal driving frequency.

[4] = tested on: left auricle of isolated rabbit heart; assay: Electrophysiological tests in the isolated rabbit heart, left auricle; settings: 2.0 mg/l, n = 4
Experimental: as §1

[5] = 2.0 mg/kg i.v., 2 min following treatment
[6] = 2.0 mg/kg i.v., 10 min following treatment
[7] = 2.0 mg/kg i.v., 20 min following treatment
[8] = 4.0 mg/kg i.v., 2 min following treatment
[9] = 4.0 mg/kg i.v., 10 min following treatment
[10] = 4.0 mg/kg i.v., 20 min following treatment
[11] = 20 mg/kg i.d., 10 minutes following treatment
[12] = 20 mg/kg i.d., 20 minutes following treatment
[13] = 20 mg/kg i.d., 30 minutes following treatment
[14] = 20 mg/kg i.d., 40 minutes following treatment
[15] = 20 mg/kg i.d., 50 minutes following treatment
[16] = 20 mg/kg i.d., 60 minutes following treatment
[17] = 20 mg/kg i.d., 70 minutes following treatment
[18] = 20 mg/kg i.d., 80 minutes following treatment
[19] = 20 mg/kg i.d., 90 minutes following treatment
[20] = 20 mg/kg i.d., 100 minutes following treatment

CN(C)C(=N)NNc1c(Cl)cccc1Cl [Example 2, 1-(2,6-Dichlorophenyl)-4,4-dimethyl-aminoguanidine]
LD50 (in vivo; ip): 73 mg/kg
LD50 (in vivo; po): 220 mg/kg
change in vivo at 25 mg/kg ([1]; ip): 79%
change in vivo at 50 mg/kg ([1]; ip): 156%
change in vivo at 25 mg/kg ([1]; po): 39%
change in vivo at 50 mg/kg ([1]; po): 71%
change in vivo at 100 mg/kg ([1]; po): 150%

CCN(CC)C(=N)NNc1ccccc1Cl [Example 3, 1-(2-Chlorophenyl)-4,4-diethyl-aminoguanidine hydrochloride]
change in vivo at 10 mg/kg ([1]; ip): 108%
change in vivo at 20 mg/kg ([1]; ip): 68%

CCN(CC)C(=N)NNc1ccccc1C [Example 4, 1-(2-Methyl-phenyl)-4,4-diethyl-aminoguanidine hydrochloride]
change in vivo at 5 mg/kg ([1]; ip): 28%
change in vivo at 10 mg/kg ([1]; ip): 77%

Cc1cccc(C)c1NNC(=N)N(C)C [Example 5]
Percentual change in the fibrillation threshold ([2]; 0.5 mg/kg i.v., 2 min following treatment): +18.75%
Percentual change in the fibrillation threshold ([2]; 0.5 mg/kg i.v., 10 min following treatment): +40.75%
Percentual change in the fibrillation threshold ([2]; 0.5 mg/kg i.v., 20 min following treatment): +37.6%
Percentual change in the fibrillation threshold ([2]; 1.0 mg/kg i.v., 2 min following treatment): +35.2%
Percentual change in the fibrillation threshold ([2]; 1.0 mg/kg i.v., 10 min following treatment): +55.2%
Percentual change in the fibrillation threshold ([2]; 1.0 mg/kg i.v., 20 min following treatment): +48.4%
Percentual change in the fibrillation threshold [2, 5]: +101.1%
Percentual change in the fibrillation threshold [2, 6]: +93.0%
Percentual change in the fibrillation threshold [2, 7]: +94.15%
Percentual change in the fibrillation threshold [2, 8]: +153.3%
Percentual change in the fibrillation threshold [2, 9]: +125.65%
Percentual change in the fibrillation threshold [2, 10]: +124.0%
Percentual change in the fibrillation threshold ([2]; 8.0 mg/kg i.v., 2 min following treatment): +392.8%
Percentual change in the fibrillation threshold ([2]; 8.0 mg/kg i.v., 10 min following treatment): +354.5%
Percentual change in the fibrillation threshold ([2]; 8.0 mg/kg i.v., 20 min following treatment): +310.25%
Percentual change in the fibrillation threshold [2, 11]: +22.2%
Percentual change in the fibrillation threshold [2, 12]: +29.0%
Percentual change in the fibrillation threshold [2, 13]: +94.0%
Percentual change in the fibrillation threshold [2, 14]: +103.7%
Percentual change in the fibrillation threshold [2, 15]: +100.4%
Percentual change in the fibrillation threshold [2, 16]: +105.8%
Percentual change in the fibrillation threshold [2, 17]: +100.3%
Percentual change in the fibrillation threshold [2, 18]: +121.5%
Percentual change in the fibrillation threshold [2, 19]: +132.8%
Percentual change in the fibrillation threshold [2, 20]: +132.3%
LD50 (in vivo; ip): 130 mg/kg
LD50 (in vivo; po): 400 mg/kg
change in vivo at 25 mg/kg ([1]; ip): 113%
change in vivo at 50 mg/kg ([1]; ip): 155%
change in vivo at 100 mg/kg ([1]; po): 111%

CN(C)C(=N)NNc1ccccc1Cl [Example 6]
change in vivo at 50 mg/kg ([1]; ip): 114%
change in vivo at 100 mg/kg ([1]; po): 70%

Cc1ccccc1NNC(=N)N1CCCC1 [Example 7]
change in vivo at 25 mg/kg ([1]; ip): 50%
change in vivo at 50 mg/kg ([1]; ip): 128%
change in vivo at 50 mg/kg ([1]; po): 54%
change in vivo at 100 mg/kg ([1]; po): 137%

CC1CCCCN1C(=N)NNc1ccccc1Cl (stereo not drawn) [Example 8]
change in vivo at 5 mg/kg ([1]; ip): 32%
change in vivo at 10 mg/kg ([1]; ip): 110%

CN(C)C(=N)NNc1cccc(Cl)c1 [Example 9]
change in vivo at 50 mg/kg ([1]; ip): 171%

Cc1cccc(C)c1NNC(=N)N1CCCC1 [Example 11]
Percentual change in the fibrillation threshold [2, 5]: +130.6%
Percentual change in the fibrillation threshold [2, 6]: +149.0%
Percentual change in the fibrillation threshold [2, 7]: +163.3%
Percentual change in the fibrillation threshold [2, 8]: +176.0%
Percentual change in the fibrillation threshold [2, 9]: +328.0%
Percentual change in the fibrillation threshold [2, 10]: +316.0%
Percentual change in the fibrillation threshold [2, 11]: +5.8%
Percentual change in the fibrillation threshold [2, 12]: +22.0%
Percentual change in the fibrillation threshold [2, 13]: +43.8%
Percentual change in the fibrillation threshold [2, 14]: +79.6%
Percentual change in the fibrillation threshold [2, 15]: +115%
Percentual change in the fibrillation threshold [2, 16]: +118%
Percentual change in the fibrillation threshold [2, 17]: +141%
Percentual change in the fibrillation threshold [2, 18]: +198%
Percentual change in the fibrillation threshold [2, 19]: +209.5%
Percentual change in the fibrillation threshold [2, 20]: +272.5%

CN(C)C(=N)NNc1ccccc1 [Example 18]
change in vivo at 100 mg/kg ([1]; po): 74%

CCc1cccc(C)c1NNC(=N)N(C)C [Example 21]
change in vivo at 25 mg/kg ([1]; ip): 110%
change in vivo at 50 mg/kg ([1]; ip): 86%

Cc1ccccc1NNC(=N)N1CCOCC1 [Example 22]
change in vivo at 50 mg/kg ([1]; ip): 100%

Cc1cccc(C)c1OCC(C)N.Cl (stereo not drawn) [Mexiletin, 1-(2,6-Dimethylphenoxy)-2-aminopropane hydrochloride, reference compound]
Percentual change in the fibrillation threshold ([2]; 10.0 mg/kg i.v., 10 min following treatment): +161.2%
Percentual change in the fibrillation threshold ([2]; 10.0 mg/kg i.v., 20 min following treatment): +92.0%
Change in conduction time [3]: +11%
Change in electric stimulus threshold [3]: +6%
Change in max. driving frequency [3]: -28%
Change in conduction time [4]: +24%
Change in electric stimulus threshold [4]: 36%
Change in max. driving frequency [4]: -32%
change in vivo at 5 mg/kg ([1]; ip): 3.5%
change in vivo at 10 mg/kg ([1]; ip): 7.7%
change in vivo at 25 mg/kg ([1]; ip): 33%
change in vivo at 50 mg/kg ([1]; ip): 83%
change in vivo at 75 mg/kg ([1]; ip): 162%
change in vivo at 100 mg/kg ([1]; po): 93%

C=C[C@H]1C[N@@]2CC[C@H]1C[C@@H]2[C@@H](O)c1ccnc2ccc(OC)cc12 [Quinidine, quinidine, reference compound]
Percentual change in the fibrillation threshold ([2]; 10 mg/kg i.d., 10 minutes following treatment): +0.4%
Percentual change in the fibrillation threshold ([2]; 10 mg/kg i.d., 20 minutes following treatment): +26.7%
Percentual change in the fibrillation threshold ([2]; 10 mg/kg i.d., 30 minutes following treatment): +58.5%
Percentual change in the fibrillation threshold ([2]; 10 mg/kg i.d., 40 minutes following treatment): +48.5%
Percentual change in the fibrillation threshold ([2]; 10 mg/kg i.d., 50 minutes following treatment): +32.1%
Percentual change in the fibrillation threshold ([2]; 10 mg/kg i.d., 70 minutes following treatment): +9.5%
Percentual change in the fibrillation threshold ([2]; 10 mg/kg i.d., 80 minutes following treatment): +8.8%
Percentual change in the fibrillation threshold ([2]; 10 mg/kg i.d., 90 minutes following treatment): +3.8%
Percentual change in the fibrillation threshold ([2]; 10 mg/kg i.d., 100 minutes following treatment): 0.0%
